Type in all cases: biochemical
One experiment concerns the target T1, Recombinant human Src (Homo sapiens, UniProt P12931).
T1 construct: made in house; host or cells: baculovirus-insect cell system
The experiment can be described thus: Src tyrosine kinase activity assay with poly E4Y and 32P-ATP. In outline: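 Src expressed in baculovirus-insect cells; Csk and FGFr expressed as GST fusions in E. coli. Kinase activity measured as 32P transfer from γ32P-ATP (0.2 mM, 0.2-0.4 mCi/μmol) to poly E4Y in 0.15 M EPPS-NaOH pH 8.0, 6 mM MgCl2, 10% glycerol, 0.1% Triton X-100; in ATP-variation runs (0-250 μM), poly E4Y fixed at 150 μg/ml.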

The target in another experiment is T2, Recombinant Csk (Homo sapiens, UniProt P41240).
T2 construct: GST ('glutathione-5-transferase' [sic]); made in house; host or cells: E. coli (pGEX expression vector)
T2 sequence (P41240 whole entry, species assumed): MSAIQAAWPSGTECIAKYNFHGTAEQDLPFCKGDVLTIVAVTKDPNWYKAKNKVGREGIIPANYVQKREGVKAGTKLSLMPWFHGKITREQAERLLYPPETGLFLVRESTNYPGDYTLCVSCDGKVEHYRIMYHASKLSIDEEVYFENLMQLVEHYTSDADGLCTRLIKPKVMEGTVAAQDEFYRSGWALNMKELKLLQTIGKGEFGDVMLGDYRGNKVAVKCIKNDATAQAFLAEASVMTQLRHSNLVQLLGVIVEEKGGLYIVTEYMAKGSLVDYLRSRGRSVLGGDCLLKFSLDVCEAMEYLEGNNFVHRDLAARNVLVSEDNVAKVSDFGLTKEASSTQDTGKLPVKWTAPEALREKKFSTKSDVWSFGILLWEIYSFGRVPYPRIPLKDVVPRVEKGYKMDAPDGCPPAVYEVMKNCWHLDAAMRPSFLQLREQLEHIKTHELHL
The experiment can be described thus: Csk tyrosine kinase activity assay with poly E4Y and 32P-ATP. Particulars: NI = no inhibition. Here is the method:
(§1) Recombinant human Src was expressed using the baculovirus-insect cell system and purified as published (Budde et al., 1993 and 2000). Recombinant Csk and the FGF receptor (FGFr) were expressed as […] fusion proteins using the pGEX expression vector and E. coli, and purified as described (Sun & Budde, 1995).
(§2) The tyrosine kinase activity of Src, Csk and FGFr was determined using poly E4Y and ^32P-ATP. Briefly, enzymes were assayed in a reaction mixture […] consisting of 0.15 M EPPS-NaOH (pH 8.0) with 6 mM MgCl2, 0.2 mM γ^32P-ATP (0.2-0.4 mCi/μmol), 10% glycerol, 0.1% Triton X-100, and poly E4Y. Poly E4Y is a synthetic peptide whose phosphorylation is measured in this assay by the addition of the radioactively labeled phosphate from the ATP (Budde et al., 1995). […] When ATP was varied (0, 50, 100 and 250 μM), poly E4Y was kept constant at 150 μg/ml.

The target in the next experiment is T3, FGF receptor (FGFr).
T3 construct: fused on or other part: glutathione-S-transferase (GST) from the pGEX vector
Put plainly: FGFr tyrosine kinase activity assay with poly E4Y and 32P-ATP. Particulars: NI = no inhibition. The protocol: as §1, §2

[1] abbreviates: poly E4Y, 32P-ATP, NI = no inhibition, read-out: IC50 Value Src.
Setting [2] is: especially good inhibitors of Src, screening assay 50 μg/ml poly E4Y, 0.2 mM ATP, read-out: IC50 (inhibitors of Src).

One may read the pIC50 as the IC50 on a negative log10 scale, so that one unit is a factor of ten.

pIC50: −log10 of the molar value. Read-outs that look alike come from different tables or passages of the source.

T1 sequence (P12931 whole entry): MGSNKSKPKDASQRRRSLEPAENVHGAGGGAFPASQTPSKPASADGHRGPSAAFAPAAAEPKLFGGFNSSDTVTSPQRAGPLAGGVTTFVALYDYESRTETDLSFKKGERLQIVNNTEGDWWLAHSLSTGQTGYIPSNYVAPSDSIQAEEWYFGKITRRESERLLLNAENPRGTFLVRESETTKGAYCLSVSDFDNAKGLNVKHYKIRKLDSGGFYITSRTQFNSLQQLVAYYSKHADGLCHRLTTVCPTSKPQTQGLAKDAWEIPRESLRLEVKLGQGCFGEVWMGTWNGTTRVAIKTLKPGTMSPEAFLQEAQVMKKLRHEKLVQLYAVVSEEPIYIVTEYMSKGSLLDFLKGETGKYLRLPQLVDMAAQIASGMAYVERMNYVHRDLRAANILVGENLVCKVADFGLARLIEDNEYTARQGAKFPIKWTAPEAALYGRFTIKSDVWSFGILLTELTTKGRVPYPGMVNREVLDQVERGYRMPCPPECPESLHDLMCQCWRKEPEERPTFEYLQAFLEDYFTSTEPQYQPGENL

As to `CCOc1ccccc1-c1sc2c(NN=Cc3ccc(O)c(Cl)c3)ncnc2c1O` [Compound 92, 3-Chloro-4-hydroxybenzaldehyde (6-(2-ethoxyphenyl)-7-hydroxythieno[3,2-d]pyrimidin-4-yl)hydrazone], the pIC50 at Recombinant human Src (setting [1]) is 8.38; on Recombinant Csk, 4.95; against FGF receptor (FGFr), 4.56.

As for `COc1ccc(C=NNc2ncnc3c(CO)c(-c4ccc(N)cc4)sc23)cc1O` [Compound 58, 3-Hydroxy-4-methoxybenzaldehyde (6-(4-aminophenyl)-7-hydroxymethylthieno[3,2-d]pyrimidin-4-yl)hydrazone], the pIC50 is 7.37 at Recombinant human Src (setting [1]) and 4.92 on Recombinant Csk.

As for `CCOc1ccccc1-c1sc2c(NN=Cc3sccc3C)ncnc2c1O` [Compound 124, 3-Methyl-2-thiophenecarboxaldehyde (6-(2-ethoxyphenyl)-7-hydroxythieno[3,2-d]pyrimidin-4-yl)hydrazone], the negative-log IC50 (pIC50) on Recombinant human Src (setting [1]) is 8.05; on Recombinant Csk it was 4.82.

Consider `CCOc1ccccc1-c1sc2c(NN=Cc3cc(Br)c(O)c(OC)c3)ncnc2c1O` [Compound 89, 3-Bromo-4-hydroxy-5-methoxybenzaldehyde (6-(2-ethoxyphenyl)-7-hydroxythieno[3,2-d]pyrimidin-4-yl)hydrazone], for which the results for the negative logarithm of the IC50 (pIC50) on Recombinant human Src (setting [1]), at Recombinant Csk and at FGF receptor (FGFr) were 8.60, 5.54 and 5.72, respectively.

For the compound `COc1ccc(C=NNc2ncnc3c(C)c(-c4ccc(N(C)C)cc4)sc23)cc1O` [Compound 42, 3-Hydroxy-4-methoxybenzaldehyde (6-(4-N,N-dimethylaminophenyl)-7-methylthieno[3,2-d]pyrimidin-4-yl)hydrazone], the pIC50 on Recombinant human Src (setting [2]) is ≥ 5.70; on Recombinant human Src (setting [1]) it was 7.14; at Recombinant Csk it was 6.34.

Turning to `COc1ccc(C=NNc2ncnc3c(C)c(-c4ccc(CN5CCOCC5)cc4)sc23)cc1O` [Compound 46, 3-Hydroxy-4-methoxybenzaldehyde (6-(4-(morpholin-4-yl)methyl-phenyl)-7-methylthieno[3,2-d]pyrimidin-4-yl)hydrazone], the negative logarithm of the IC50 (pIC50) at Recombinant human Src (setting [1]) is 8.26; at Recombinant Csk it was 3.99; against FGF receptor (FGFr), 3.99.

For the compound `CCOc1ccccc1-c1sc2c(NN=Cc3ccc(OC)c(O)c3)ncnc2c1CO` [Compound 33, 3-Hydroxy-4-methoxybenzaldehyde (7-hydroxymethyl-6-(2-ethoxyphenyl)thieno[3,2-d]pyrimidin-4-yl)hydrazone], the results for the negative-log IC50 (pIC50) at Recombinant human Src (setting [1]) and at Recombinant Csk were 7.96 and 5.00, respectively.

Regarding `COc1ccc(C=NNc2ncnc3c(C)c(-c4ccc(NC(C)=O)cc4)sc23)cc1O` [Compound 43, 3-Hydroxy-4-methoxybenzaldehyde (6-(4-N-acetylaminophenyl)-7-methythieno[3,2-d]pyrimidin-4-yl)hydrazone], the pIC50 at Recombinant human Src (setting [1]) is 7.92; at Recombinant Csk it was 3.95.

In the case of `Cc1c(-c2ccc(C(N)=NO)cc2)sc2c(NN=Cc3cccnc3)ncnc12` [Compound 50, 3-Pyridinecarboxaldehyde (6-(N-hydroxy-benzamidin-4-yl)-7-methylthieno[3,2-d]pyrimidin-4-yl)hydrazone], the negative logarithm of the IC50 (pIC50) on Recombinant human Src (setting [1]) is 7.60; on Recombinant Csk, 4.38.

Consider `COc1ccc(C=NNc2ncnc3c(C)c(-c4ccc(C(N)=NO)cc4)sc23)cc1O` [Compound 51, 3-Hydroxy-4-methoxybenzaldehyde (6-(N-hydroxy-benzamidin-4-yl)-7-methylthieno[3,2-d]pyrimidin-4-yl)hydrazone], for which the figures for the pIC50 at Recombinant human Src (setting [1]) and at Recombinant Csk were 7.96 and 4.33, respectively.

On to `COc1ccc(C=NNc2ncnc3c(C)c(-c4ccccc4O)sc23)cc1O` [Compound 84, 3-Hydroxy-4-methoxybenzaldehyde (6-(2-hydroxyphenyl)-7-methylthieno[3,2-d]pyrimidin-4-yl)hydrazone], for which the pIC50 on Recombinant human Src (setting [1]) is 6.74; on Recombinant Csk, 3.30.

For `CCOc1ccccc1-c1sc2c(NN=Cc3cc(O)c(OC)c(OC)c3)ncnc2c1O` [Compound 100, 3,4-Dimethoxy-5-hydroxybenzaldehyde (6-(2-ethoxyphenyl)-7-hydroxythieno[3,2-d]pyrimidin-4-yl)hydrazone], the results for the negative logarithm of the IC50 (pIC50) at Recombinant human Src (setting [1]) and on Recombinant Csk were 8.89 and 5.68, respectively.

As for `CCOc1ccccc1-c1sc2c(NN=Cc3cccc(C(=O)O)c3)ncnc2c1O` [Compound 116, 3-Carboxybenzaldehyde (6-(2-ethoxyphenyl)-7-hydroxythieno[3,2-d]pyrimidin-4-yl)hydrazone], the pIC50 was 8.30 at Recombinant human Src (setting [1]) and 5.15 at Recombinant Csk.

As for `CCOc1ccccc1-c1sc2c(NN=Cc3ccncc3)ncnc2c1O` [Compound 112, 4-Pyridinecarboxaldehyde (6-(2-ethoxyphenyl)-7-hydroxythieno[3,2-d]pyrimidin-4-yl)hydrazone], the negative-log IC50 (pIC50) at Recombinant human Src (setting [1]) was 8.40; at Recombinant Csk it was 5.14.

On to `CCOc1ccccc1-c1sc2c(NN=Cc3cccc(O)c3)ncnc2c1O` [Compound 105, 3-Hydroxybenzaldehyde (6-(2-ethoxyphenyl)-7-hydroxythieno[3,2-d]pyrimidin-4-yl)hydrazone], for which the results for the negative-log IC50 (pIC50) at Recombinant human Src (setting [2]), on Recombinant human Src (setting [1]) and on Recombinant Csk were ≥ 5.70, 8.37 and 6.05, respectively.

As for `CCCOc1ccccc1-c1sc2c(NN=Cc3cccs3)ncnc2c1O` [Compound 85], the results for the negative logarithm of the IC50 (pIC50) at Recombinant human Src (setting [1]), on Recombinant Csk and against FGF receptor (FGFr) were 8.32, 4.75 and 5.12, respectively.

On to `CCOc1ccccc1-c1sc2c(NN=Cc3ccc(O)c(OC)c3)ncnc2c1O` [Compound 88, 4-Hydroxy-3-methoxybenzaldehyde (6-(2-ethoxyphenyl)-7-hydroxythieno[3,2-d]pyrimidin-4-yl)hydrazone], for which the negative-log IC50 (pIC50) is 8.60 at Recombinant human Src (setting [1]), 5.47 on Recombinant Csk and 5.64 at FGF receptor (FGFr).

These data come from patent US20060004002A1 (priority 2004, published 2006).
